Experiments:
[1] = test system: Drosophila expressing mutant huntington protein in the MBs; experiment: Naive courtship and short-term memory in Drosophila expressing mutant huntington in the MBs; type: in vivo; conditions: 5 day old flies; p<0.05
From the text: Both HDAC inhibition and CBP overexpression should in theory promote an increase CREB mediated gene transcription. […] Since we knew that we could use a PDE-4 inhibitor or mGluR antagonists or lithium to increase cAMP levels thereby promoting CREB mediated transcription, we decided to see if these compounds could restore the memory deficit in Drosophila expressing mutant huntington in the MBs.

[2] = test system: flies heterozygous for the Drosophila presenilin gene; experiment: Short term memory in presenilin mutant Drosophila model of Alzheimer's disease; type: in vivo; conditions: 30 days of age; data not shown
From the text: We have also discovered that there is a deficit in long term memory in these flies as young adults, and there is also an age dependent deficit in these flies in short term memory at 30 days of age (data not shown). This age dependent deficit in short term memory is rescued by treatment with LY341495. Additionally, this age dependent deficit is rescued by lowering IP3R expression by making these presenilin mutant lines heterozygous for an IP3R deletion (data not shown).

[3] = test system: FS (dFMR1-3+frame shifted rescue fragment) flies; experiment: Discrimination between virgin and previously mated females, FS flies; type: in vivo, Drosophila melanogaster; conditions: 20-day-old; MPEP 200 μg/ml in development and adulthood (M-M)
Procedure: (§1) Short-term memory. The model was further extended to encompass short-term memory at 60 minutes after training. After the one hour training session with a previously mated female, the female is removed and the male is placed in a holding chamber for 60 minutes, then subsequently placed in a testing chamber with a virgin female target to assess short-term memory (FIG. 4C). […] CT-CT FS flies court just as vigorously at 60 minutes after training as naive CT-CT FS flies. […] The FS groups that were treated with MPEP in development alone, adulthood alone or in both development and adulthood display experience dependent reduction of courtship activity at 60 minutes after training when compared to group matched naives M-M FS, p<0.0001, CT-M FS, p<0.0001 and M-CT FS, p<0.0001. […] Additionally, flies were tested for ability to discriminate between virgin and previously mated females (FIG. 4D).
(§2) Flies were also tested for ability to discriminate between virgin and previously mated females in FIG. 9C.

[4] = test system: FS (dFMR1-3+frame shifted rescue fragment) flies; experiment: Quality of naive courtship (progress to later courtship steps), FS flies; type: in vivo, Drosophila melanogaster
Procedure: In order to determine if MPEP can get into the Drosophila central nervous system (CNS) through feeding behavior, we mixed MPEP into the food at a concentration of 1,000 μg/ml (433.0 μM). Males were raised on CT food and then placed on either CT or M food. Naive males were placed in the training chamber for one hour with no female, and then placed with a virgin target female for a ten-minute interval. The naive courtship behavior was reduced by high MPEP concentration in Rescue (p<0.0001) and FS (p<0.0005) lines, and it was depressed to similar levels by high MPEP treatment in the Rescue and FS groups (FIG. 2A). […] FIG. 2B dissects the steps involved in naive courtship behavior. […] Lowering the dose of MPEP and examining naive courtship. We next decided to try a lower dose of MPEP to 200 μg/ml (86.6 μM) mixed into the food of the Drosophila. In these experiments flies were placed on either CT or M food in the larval stage and then placed on either CT of M food within four hours of eclosion. […] Therefore giving this drug in adulthood only is effective in enhancing naive courtship behavior. […] The MPEP in development can rescue the naive courtship phenotype regardless of whether or not the flies receive it as adults. Further analysis of the quality of courtship that was performed by naive males was assessed by binning the number of males to advance to a particular phase of courtship for each genotype and pharmacologic treatment (FIG. 3B).

[5] = test system: Rescue (dFMR1-3+wild type rescue fragment) flies; experiment: Discrimination between virgin and previously mated females, Rescue flies; type: in vivo, Drosophila melanogaster
Procedure: as §1, §2

[6] = test system: Rescue (dFMR1-3+wild type rescue fragment) flies; experiment: Conditioned courtship: learning during training, Rescue flies; type: in vivo, Drosophila melanogaster; conditions: MPEP 200 μg/ml in development, adulthood or both
From the text: The role of dFMR1 in learning during training and immediate recall. The flies used were w1118 (the background stock from which the mutation was derived), dFMR1-3 (the mutation lacking dFMR1 expression), Rescue (dFMR1-3+wild type rescue fragment) and FS (frame shift, dFMR1-3+frame shifted rescue fragment) all from Dockendorff et al, 2002. To assess learning during training male flies are placed in a training chamber with a previously mated female for one hour. The amount of time the male spent courting in the initial ten-minute interval was compared to the amount of time the male spent courting the female target in the final ten-minute interval (FIG. 1). […] It is important to note that the level of courtship behavior towards the previously mated female is similar between the two mutant groups and the w1118 and Rescue groups. […] This is important to note, because without actively courting, the male fly cannot be trained (Tompkins et al. 1982; 1983).
Learning during training. In order to assess learning during training, the male flies were placed in a training chamber with a previously mated female for one hour. The amount of time the male spent courting in the first ten-minute interval was compared to the amount of time the male spent courting the female target in the last ten-minute interval (FIG. 4A).
Behavioral Training and Testing. […]

SMILES: N[C@](CC1c2ccccc2Oc2ccccc21)(C(=O)O)[C@H]1C[C@@H]1C(=O)O [LY341495, (2S)-2-amino-2-[(1S,2S)-2-carboxycycloprop-1-yl]-3-(xanth-9-yl) propionic acid]
- short-term memory [1]: restored short-term memory
- age dependent deficit in short term memory [2]: rescued

SMILES: Cc1cccc(C#Cc2ccccc2)n1 [MPEP, 2-methyl-6-(phenylethynyl)pyridine]
- time courting virgin female compared to previously mated female (discrimination) [3]: spent significantly more time courting virgin female targets
- quality of naive courtship ([4]; 20-day-old, MPEP (86.6 μM)): in adulthood, but not in development alone, MPEP treatment can affect the quality of naive courtship behavior
- quality of naive courtship ([4]; 5 day old, MPEP 200 μg/ml in development or adulthood): can affect the quality of naive courtship behavior
- steps involved in naive courtship behavior ([4]; 5 day old, MPEP 1,000 μg/ml in adulthood, relative to CT-CT Rescue): failed to progress to later steps in courtship behavior
- time courting virgin female compared to previously mated female (discrimination) ([5]; 20-day-old, MPEP 200 μg/ml in development and adulthood (M-M)): spent significantly more time courting virgin female targets
- ability to discriminate between virgin and previously mated females ([5]; 5 day old, MPEP 200 μg/ml in adulthood only (CT-M)): spend similar amounts of time courting previously mated female targets and virgin female targets
- learning during training (initial vs final courtship levels) ([6]; 20-day-old): significant depression from the initial to final intervals
- learning during training ([6]; 5 day old): does not adversely affect learning during training

Source: patent US20080187492A1, “Drosophila Models For Diseases Affecting Learning and Memory” (priority 2004, published 2008)
